{"source": "patent US20230397607A1", "about": "“COMPOSITIONS COMPRISING MEFENTRIFLUCONAZOLE” (BASF AGRO B.V., priority 2020, published 2023)", "key": {"[1]": {"system": "Septoria tritici", "conditions": "SEPTTR, single active, 7 days after inoculation", "quoted_text": "Activity Against Leaf Blotch on Wheat Caused by Septoria tritici (SEPTTR)\nThe stock solutions were mixed according to the ratio, pipetted onto a micro titer plate (MTP) and diluted with water to the stated concentrations. A spore suspension of Septoria tritici in an aqueous biomalt or yeast-bactopeptone-glycerine or DOB solution was then added. The plates were placed in a water vapor-saturated chamber at a temperature of 18° C. Using an absorption photometer, the MTPs were measured at 405 nm 7 days after the inoculation.\nAn efficacy of 0 means that the growth level of the pathogens corresponds to that of the untreated control; an efficacy of 100 means that the pathogens were not growing."}, "[2]": {"system": "Qoi resistant isolate of Pyrenophora teres", "assay": "Microtiter test: activity against net blotch Pyrenophora teres on barley (PYRNTE)", "type": "cell-based", "conditions": "single active, 7 days after inoculation", "description": "2. Activity Against Net Blotch Pyrenophora teres on Barley in the Microtiter Test (PYRNTE)\nThese percentages were converted into efficacies."}}, "note": "Like-named read-outs stand apart in the source and are kept apart here."}
{"molecule": "CC(O)(Cn1cncn1)c1ccc(Oc2ccc(Cl)cc2)cc1C(F)(F)F", "note": "(stereo not drawn) [compound I, 2-[4-(4-chlorophenoxy)-2-(trifluoromethyl)phenyl]-1-(1,2,4-triazol-1-yl) propan-2-ol]", "values": [{"measurement": "Observed efficacy", "setting": "[1]; 0.001 ppm", "value": 7, "unit": "%"}, {"measurement": "Observed efficacy", "setting": "[1]; 0.004 ppm", "value": 69, "unit": "%"}, {"measurement": "Observed efficacy", "setting": "[2]; 0.00025 ppm", "value": 0, "unit": "%"}, {"measurement": "Observed efficacy", "setting": "[2]; 0.001 ppm", "value": 0, "unit": "%"}, {"measurement": "Observed efficacy", "setting": "[2]; 0.004 ppm", "value": 0, "unit": "%"}]}
{"molecule": "CO/C=C(/C(=O)OC)c1ccccc1Oc1cc(Oc2ccccc2C#N)ncn1", "note": "[azoxystrobin (A.1.1), azoxystrobin]", "values": [{"measurement": "Observed efficacy", "setting": "[1]; 0.004 ppm", "value": 7, "unit": "%"}]}
{"molecule": "CC1CC(C)(C)c2cccc(NC(=O)c3cn(C)nc3C(F)F)c21", "note": "(stereo in doubt) [compound II, 3-(difluoromethyl)-N-[(3R)-2,3-dihydro-1,1,3-trimethyl-1H-inden-4-yl]-1-methyl-1H-pyrazole-4-carboxamide]", "values": [{"measurement": "Observed efficacy", "setting": "[1]; 0.016 ppm", "value": 0, "unit": "%"}, {"measurement": "Observed efficacy", "setting": "[1]; 0.063 ppm", "value": 17, "unit": "%"}, {"measurement": "Observed efficacy", "setting": "[2]; 0.004 ppm", "value": 0, "unit": "%"}, {"measurement": "Observed efficacy", "setting": "[2]; 0.016 ppm", "value": 10, "unit": "%"}, {"measurement": "Observed efficacy", "setting": "[2]; 0.063 ppm", "value": 37, "unit": "%"}]}
{"molecule": "COC(=O)N(OC)c1ccccc1COc1ccn(-c2ccc(Cl)cc2)n1", "note": "[pyraclostrobin (A.1.14), pyraclostrobin]", "values": [{"measurement": "Observed efficacy", "setting": "[1]; 0.001 ppm", "value": 9, "unit": "%"}]}
{"molecule": "Cn1cc(C(=O)Nc2ccccc2-c2cc(F)c(F)c(F)c2)c(C(F)F)n1", "note": "[fluxapyroxad (A.3.9), fluxapyroxad]", "values": [{"measurement": "Observed efficacy", "setting": "[2]; 0.004 ppm", "value": 0, "unit": "%"}]}
{"molecule": "CON(C(=O)c1cn(C)nc1C(F)F)C(C)Cc1c(Cl)cc(Cl)cc1Cl", "note": "(stereo not drawn) [pydiflumetofen (A.3.17), pydiflumetofen]", "values": [{"measurement": "Observed efficacy", "setting": "[2]; 0.063 ppm", "value": 10, "unit": "%"}]}
{"molecule": "CC(C)c1ccc(Cl)cc1CN(C(=O)c1c(C(F)F)nn(C)c1F)C1CC1", "note": "[isoflucypram (A.3.26), isoflucypram]", "values": [{"measurement": "Observed efficacy", "setting": "[1]; 0.063 ppm", "value": 37, "unit": "%"}]}
